Reference: US12594350B2, “CD8-specific capture agents, compositions, and methods of using and making” (Regeneron Pharmaceuticals, Inc., priority 2016, dated 2026)
One block for each molecule: values may come before it. Bridge positions count the residues as written; N and C are the ends. Square brackets hold non-standard residues; d marks the D form. Triazole bridges read from a SMILES are 1,4-linked. Ends that are not written are not given here. Peptide text beside a SMILES is read from it. * marks the point of attachment. Biotin = O=C1N[C@H]2[C@H](CS[C@H]2CCCCC(=O)*)N1; Lys(N3) = [N-]=[N+]=NCCCC[C@H](N)C(=O)O; Pra = C#CC[C@H](N)C(=O)O; AEA = NCCOCC(=O)O

What was measured:
[1] = target: His-tagged CD8α human recombinant protein (Homo sapiens, UniProt P01732); experiment: CD8 ELISA (affinity assay) of biligands to determine cooperativity; format: binding; design: purchased Origene TP760215; settings: biotinylated biligand immobilized on NeutrAvidin plate; CD8α titrated 200 to 0 nM; read-out: EC50 against CD8
His-tagged CD8α human recombinant protein, sequence (P01732 22-235): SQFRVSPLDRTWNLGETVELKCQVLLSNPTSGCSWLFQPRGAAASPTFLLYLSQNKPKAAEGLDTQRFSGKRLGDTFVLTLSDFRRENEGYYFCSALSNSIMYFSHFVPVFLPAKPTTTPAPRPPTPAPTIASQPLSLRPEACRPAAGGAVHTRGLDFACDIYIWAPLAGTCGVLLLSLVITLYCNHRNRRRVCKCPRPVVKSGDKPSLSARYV
Procedure: CD8 ELISA (Affinity assay). […] The plate was then blocked with 2 μM Biotin for 15 min.
This predicts that an optimized linker to covalently join two PCC macrocycles will have a length near 28.2 Å. In FIG. 17 that prediction is validated by testing polyethylene glycol (PEG) linkers of varying lengths. […] This represents a >30-fold improvement in affinity relative to the individual PCC macrocyclic ligands. Shorter or longer linkers yield biligand affinities that, while improved over either of the PCC macrocycles, are about ˜10-fold below that of the optimal linker.

[2] = In vivo PET imaging, PK and biodistribution in normal mice; settings: normal mouse, intravenous via tail vein, 50-100 μCi
Procedure: In vivo PK of the radiolabeled macrocycle anchors and biligands was visualized and quantitatively determined by PET imaging in normal (healthy) mice. Radiolabeled peptides were formulated in PBS pH 7.4 containing <10% EtOH. 50-100 μCi of radiolabeled peptide was administered intravenously via the tail vein of each mouse. Dynamic (0-1 hour) and static PET imaging was performed to quantify initial peptide biodistribution, time to clear the initial concentration sites, and final excretion route. A CT scan was subsequently acquired for anatomical reference. Imaging was performed on GENISYS8 and Inveon microPET-CT small animal scanners.

[3] = tested on: human PBMCs; experiment: Cellular binding assay of CD8 biligand by flow cytometry; format: cell-based; settings: human PBMCs co-stained with CD3-APC mAb; biligand 5 μM
Procedure: Cryopreserved human peripheral blood mononuclear cells (PBMCs) from Zen-Bio (1 donor; #SER-PBMC-F) were thawed using Lymphocyte Medium (#LYMPH-1, Zen-Bio) following the vendor's protocol. Cells were then resuspended in FACS buffer (1× Dulbecco's Phosphate-Buffered Saline+2% Fetal Bovine Serum+2 mM EDTA).
Protocol: A total of 1×10^6 human PBMCs in 50 μL of FACs buffer was incubated with 0.5 μL of Alexa Fluor 488-labeled biligand Cy(HGRGH) (SEQ ID NO: 21)-PEG5-Cy(AKYRG) (SEQ ID NO: 8) (final concentration: 5 μM), 2 μL of human CD3-APC mAb (clone: BW264/56) (#130-098-156, MACS Miltenyi Biotec), and 2.5 μL of 7-AAD Viability Staining Solution (#00-6993, eBioscience) at room temperature for 30 min. […] Data were obtained and analyzed with FACSCalibur and FACSDiva v8.0.1 (BD Biosciences), respectively.
Flow cytometry was used to evaluate biligand detection of cellular CD8. […] Samples were then washed and analyzed for green (CD8; FITC-A) and red (CD3; APC-A) fluorescence. […] The cell populations in Q2 (10.9%) and Q4 (11.6%) were detected by the biligand as CD8+ and are consistent with the % CD8+ cells reported by the vendor. […] The cell populations detected by the CD8-FITC mAb were 11.2% in Q2 and 2.1% in Q4.

EC50 [1]: 0.058 nM
Molecule: C[C@H](O)[C@H]1NC(=O)[C@@H](Cc2c[nH]cn2)NC(=O)CNC(=O)[C@@H](N)CCCCn2cc(nn2)C[C@@H](C(=O)N[C@@H](CCCCNC(=O)CCCC[C@@H]2SC[C@@H]3NC(=O)N[C@@H]32)C(=O)NCCOCC(=O)N[C@H]2CCCCn3cc(nn3)C[C@@H](C(N)=O)NC(=O)[C@@H](Cc3c[nH]cn3)NC(=O)CNC(=O)[C@@H](CCCNC(=N)N)NC(=O)CNC(=O)[C@@H](Cc3c[nH]cn3)NC2=O)NC(=O)[C@H]2CCCN2C(=O)[C@@H](Cc2c[nH]c3ccccc23)NC1=O [Cy(Ghtwp)-Lys (Biotin)-PEG1-Cy(hGrGh)] (H-[Lys(N3)]G[dH][dT][dW][dP][Pra]K(Biotin)[AEA][Lys(N3)][dH]G[dR]G[dH][Pra]-NH2; triazole 1-7, 10-16)

Molecule: O=Cc1ccc([18F])cc1 [[^18F]FB, 4-[^18F]fluorobenzaldehyde]
biodistribution and clearance route by PET (in words) [2]: rapid kidney uptake and clearance, then near exclusive bladder occupancy by 30 minutes

Molecule: Alexa Fluor 488-labeled biligand Cy(HGRGH)-PEG5-Cy(AKYRG): biligand Cy(HGRGH)-PEG5-Cy(AKYRG) resynthesized with an Alexa Fluor 488 label (not fully specified (bridges); also: PEG5 linker joins the two macrocycles, Alexa Fluor 488 label, site not given here)
cell population in Q2 detected as CD8+ [3]: 10.9%
cell population in Q4 detected as CD8+ [3]: 11.6%
